ChEMBL document CHEMBL1201862, “PubChem BioAssay data set” (2004)
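Protocol summary: plate cells (96-well), add compound at 5 concentrations, incubate 48 h, interpolate endpoints linearly. GI50 marks 50% less growth.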 Active and inactive are the calls of the source. Cut-off read from the data, not from the text of the source: active = GI50 up to about 1.1 µM and inactive = higher.

Key:
Assay in all cases: growth of human tumour cells (NCI), 48 h
[1] = system: RXF 631
[2] = system: DMS-273
[3] = system: DLD-1
[4] = system: DMS-114
[5] = system: XF498
[6] = system: M19-MEL
[7] = system: SNB-78
[8] = system: KM-20L2
[9] = system: HOP-18

| Structure (SMILES) | GI50 [1] | GI50 [2] | GI50 [3] | GI50 [4] | GI50 [5] | GI50 [6] | GI50 [7] | GI50 [8] | GI50 [9] |
| --- | --- | --- | --- | --- | --- | --- | --- | --- | --- |
| COc1ccc2oc(-c3ccncc3)cc(=O)c2c1 | 40.5 µM (inactive) | 62.8 µM (inactive) | > 100 µM (inactive) | > 100 µM (inactive) | > 100 µM (inactive) | – | – | – | – |
| COC1(OC)C2(Cl)C(Cl)=C(Cl)C1(Cl)C1C=CC=CC12 (centres undefined) | 13.1 µM (inactive) | 60.8 µM (inactive) | 67.5 µM (inactive) | 42.4 µM (inactive) | 46.6 µM (inactive) | 44.9 µM (inactive) | > 100 µM (inactive) | 35.2 µM (inactive) | – |
| N#Cc1ccc(/C=C(/C(=O)c2ccccc2)c2ccccc2)cc1 | 11.1 µM (inactive) | 4.82 µM (inactive) | 6.58 µM (inactive) | 12.9 µM (inactive) | 10.1 µM (inactive) | 14 µM (inactive) | 2.79 µM (inactive) | 11.2 µM (inactive) | 27.5 µM (inactive) |
| O=C(NCCc1ccccc1)C1C(=O)C(=O)N(CCc2ccccc2)C1=O (centres undefined) | > 100 µM (inactive) | > 100 µM (inactive) | > 100 µM (inactive) | – | > 100 µM (inactive) | > 100 µM (inactive) | > 100 µM (inactive) | > 100 µM (inactive) | – |
| COc1ccc2c(c1)c1c(C)c3cnccc3c(C)c1n2CCCN | – | 0.1 µM (active) | 0.0853 µM (active) | 0.273 µM (active) | 0.422 µM (active) | 0.203 µM (active) | 0.286 µM (active) | 0.119 µM (active) | 0.42 µM (active) |
| Cc1c(C(=O)C/C(=N/NC(=O)CC#N)C(N)=O)[n+]([O-])c2ccccc2[n+]1[O-] | 87.3 µM (inactive) | 42 µM (inactive) | 29.1 µM (inactive) | 23.8 µM (inactive) | > 100 µM (inactive) | 21.8 µM (inactive) | 88.3 µM (inactive) | 45.2 µM (inactive) | > 100 µM (inactive) |
| CCNC(=O)CCN(C(=O)O)S(=O)(=O)c1ccc(NC(=O)c2ccccc2)cc1 | – | 23.8 µM (inactive) | > 100 µM (inactive) | > 100 µM (inactive) | > 100 µM (inactive) | 77.6 µM (inactive) | > 100 µM (inactive) | > 100 µM (inactive) | > 100 µM (inactive) |
| Nc1c(-c2nc3ccccc3[nH]2)sc(=S)n1-c1ccc(Cl)cc1 | – | 19.8 µM (inactive) | 48.2 µM (inactive) | 18.6 µM (inactive) | 35.7 µM (inactive) | 32.4 µM (inactive) | 30.4 µM (inactive) | – | 20.8 µM (inactive) |
| O=C(c1cccs1)N(C(=S)N1CCN(c2ccccc2)CC1)C1CCCCC1 | – | > 100 µM (inactive) | > 100 µM (inactive) | 58.2 µM (inactive) | – | > 100 µM (inactive) | > 100 µM (inactive) | > 100 µM (inactive) | > 100 µM (inactive) |
| O=C(O)CN1CCSc2ccccc2CN(CC(=O)O)CCSc2ccccc2C1 | – | > 100 µM (inactive) | > 100 µM (inactive) | – | – | > 100 µM (inactive) | > 100 µM (inactive) | > 100 µM (inactive) | > 100 µM (inactive) |
| CC(=O)O[C@H]1CC[C@@]2(C)C(=CC[C@H]3C4=CC=C(C(C)=O)[C@@]4(C)CCC32)C1 (some centres undefined) | – | 28.2 µM (inactive) | 37.8 µM (inactive) | – | – | 36.3 µM (inactive) | 28.2 µM (inactive) | 44.1 µM (inactive) | > 100 µM (inactive) |
| C/C=C/C(=O)Oc1cccc2cccnc12 | – | 14.6 µM (inactive) | 4.5 µM (inactive) | 4.22 µM (inactive) | 8.41 µM (inactive) | 12.5 µM (inactive) | 27.4 µM (inactive) | 8.07 µM (inactive) | 24.5 µM (inactive) |
| COc1cccc(NC(=O)CC(=O)N2N=C(N(CCC#N)c3ccccc3C)CC2c2ccccc2)c1 (centres undefined) | > 100 µM (inactive) | > 100 µM (inactive) | > 100 µM (inactive) | > 100 µM (inactive) | – | > 100 µM (inactive) | > 100 µM (inactive) | > 100 µM (inactive) | > 100 µM (inactive) |
| COc1ccc(OC(C)C(=O)O)c2c(=O)ccccc12 (centres undefined) | > 100 µM (inactive) | > 100 µM (inactive) | > 100 µM (inactive) | > 100 µM (inactive) | > 100 µM (inactive) | > 100 µM (inactive) | > 100 µM (inactive) | > 100 µM (inactive) | – |
